From PubChem BioAssay (NCI)
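Tested at 5 concentrations; 48 h exposure; 96-well plates; endpoints linearly interpolated, else capped at highest concentration. GI50 = concentration required for 50% inhibition of growth. TGI is the concentration that stops growth completely.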

Tests used:
Assay in all cases: growth of human tumour cells (NCI), 48 h
[1] = system: RXF 393 renal
[2] = system: SK-MEL-2 melanoma
[3] = system: RPMI-8226 leukemia
[4] = system: HCT-116 colon
[5] = system: UO-31 renal
[6] = system: U251 CNS
[7] = system: ACHN renal
[8] = system: BT-549 breast
[9] = system: SR leukemia
[10] = system: A498 renal
[11] = system: MDA-MB-435
[12] = system: SW-620 colon
[13] = system: HCC-2998 colon
[14] = system: HL-60(TB) leukemia
[15] = system: K-562 leukemia
[16] = system: A549 NSCLC
[17] = system: NCI-H226 lung
[18] = system: SK-MEL-28 melanoma
[19] = system: T-47D breast
[20] = system: SK-OV-3 ovarian
[21] = system: HCT-15 colon
[22] = system: HOP-92 NSCLC
[23] = system: NCI-H522 lung
[24] = system: MALME-3M melanoma
[25] = system: SF-268 CNS
[26] = system: SF-295 CNS
[27] = system: MOLT-4 leukemia
[28] = system: NCI-H460 lung
[29] = system: EKVX NSCLC
[30] = system: OVCAR-8 ovarian
[31] = system: SNB-75 CNS
[32] = system: SK-MEL-5 melanoma
[33] = system: UACC-257 melanoma
[34] = system: TK-10 renal
[35] = system: HS 578T breast
[36] = system: OVCAR-5 ovarian
[37] = system: IGROV1 ovarian
[38] = system: NCI/ADR-RES ovarian
[39] = system: SNB-19 CNS
[40] = system: KM12 colon
[41] = system: MDA-MB-231 breast
[42] = system: CCRF-CEM leukemia
[43] = system: M14 melanoma
[44] = system: CAKI-1 renal
[45] = system: DU-145 prostate
[46] = system: COLO 205 colon
[47] = system: LOX IMVI melanoma
[48] = system: OVCAR-3 ovarian
[49] = system: NCI-H23 lung
[50] = system: 786-0 renal
[51] = system: SF-539 CNS
[52] = system: HT29 colon
[53] = system: PC-3 prostate
[54] = system: UACC-62 melanoma
[55] = system: MCF7 breast
[56] = system: SN12C renal
[57] = system: HOP-62 NSCLC
[58] = system: OVCAR-4 ovarian

Structure (SMILES): O=C1N[C@@H]2[C@@H](O)[C@@H](O)[C@H](O)C[C@H]2c2cc3c(c(O)c21)OCCO3
- GI50 [1]: 264 nM
- TGI [1]: 1110 nM
- GI50 [2]: 286 nM
- TGI [2]: 1060 nM
- GI50 [3]: 256 nM
- TGI [3]: 910 nM
- GI50 [4]: 107 nM
- TGI [4]: 1220 nM
- GI50 [5]: 294 nM
- TGI [5]: 1720 nM
- GI50 [6]: 238 nM
- TGI [6]: 8420 nM
- GI50 [7]: 306 nM
- TGI [7]: 1460 nM
- GI50 [8]: 301 nM
- TGI [8]: 1250 nM
- GI50 [9]: 245 nM
- TGI [9]: 27400 nM
- GI50 [10]: 392 nM
- TGI [10]: 1580 nM
- GI50 [11]: 269 nM
- TGI [11]: 1220 nM
- GI50 [12]: 233 nM
- TGI [12]: 1550 nM
- GI50 [13]: 227 nM
- TGI [13]: 765 nM
- GI50 [14]: 190 nM
- TGI [14]: 599 nM
- GI50 [15]: 130 nM
- TGI [15]: 11200 nM
- GI50 [16]: 354 nM
- TGI [16]: 5580 nM
- GI50 [17]: 273 nM
- TGI [17]: 1080 nM
- GI50 [18]: 274 nM
- TGI [18]: 1230 nM
- GI50 [19]: 176 nM
- TGI [19]: 1310 nM
- GI50 [20]: 496 nM
- TGI [20]: 4030 nM
- GI50 [21]: 270 nM
- TGI [21]: 1800 nM
- GI50 [22]: 116 nM
- TGI [22]: 892 nM
- GI50 [23]: 199 nM
- TGI [23]: 993 nM
- GI50 [24]: 209 nM
- TGI [24]: 731 nM
- GI50 [25]: 247 nM
- TGI [25]: 1080 nM
- GI50 [26]: 388 nM
- TGI [26]: 2650 nM
- GI50 [27]: 193 nM
- TGI [27]: 3160 nM
- GI50 [28]: 157 nM
- TGI [28]: 1130 nM
- GI50 [29]: 323 nM
- TGI [29]: 1850 nM
- GI50 [30]: 287 nM
- TGI [30]: 3210 nM
- GI50 [31]: 466 nM
- TGI [31]: 2620 nM
- GI50 [32]: 192 nM
- TGI [32]: 478 nM
- GI50 [33]: 340 nM
- TGI [33]: 1970 nM
- GI50 [34]: 684 nM
- TGI [34]: 5090 nM
- GI50 [35]: 270 nM
- TGI [35]: 976 nM
- GI50 [36]: 412 nM
- TGI [36]: 3280 nM
- GI50 [37]: 389 nM
- TGI [37]: 3130 nM
- GI50 [38]: 629 nM
- TGI [38]: 5380 nM
- GI50 [39]: 179 nM
- TGI [39]: 1020 nM
- GI50 [40]: 169 nM
- TGI [40]: 1100 nM
- GI50 [41]: 236 nM
- TGI [41]: 1070 nM
- GI50 [42]: 73.7 nM
- TGI [42]: 1830 nM
- GI50 [43]: 246 nM
- TGI [43]: 1040 nM
- GI50 [44]: 989 nM
- TGI [44]: 6140 nM
- GI50 [45]: 229 nM
- TGI [45]: 840 nM
- GI50 [46]: 162 nM
- TGI [46]: 405 nM
- GI50 [47]: 167 nM
- TGI [47]: 444 nM
- GI50 [48]: 276 nM
- TGI [48]: 1010 nM
- GI50 [49]: 238 nM
- TGI [49]: 915 nM
- GI50 [50]: 293 nM
- TGI [50]: 2080 nM
- GI50 [51]: 254 nM
- TGI [51]: 928 nM
- GI50 [52]: 315 nM
- TGI [52]: 2080 nM
- GI50 [53]: 293 nM
- TGI [53]: 2540 nM
- GI50 [54]: 272 nM
- TGI [54]: 1380 nM
- GI50 [55]: 154 nM
- TGI [55]: 796 nM
- GI50 [56]: 162 nM
- TGI [56]: 978 nM
- GI50 [57]: 282 nM
- TGI [57]: 1320 nM
- GI50 [58]: 217 nM
- TGI [58]: 838 nM
